From patent US20130039871A1, “AQUEOUS COMPOSITION CONTAINED IN CONTAINER” (KAO CORPORATION, priority 2010, published 2013)

Assay: Test 1-3: water evaporation rate of aqueous composition in open dish
Type: physicochemical
Details: Test 2
Description: Five grams of each of samples 1 to 15 having components shown in Table 1 were placed in respective dishes having an opening area of 13.85 cm^2 and were left at a humidity of 30% and a temperature of 30° C. Changes in weight of each sample were measured 1, 3, 5, 7, 12, 18, and 24 hr later. The slope of the changes in weight, the n of nX+m (X represents time (hr)) calculated by a least-squares method, was defined as the water evaporation rate (unit: mg/h), and the absolute value thereof was plotted. The test was conducted three times for each sample, and the average value thereof was determined. Note that a lower water evaporation rate means higher inhibition of evaporation.
Changes in weight of samples 15 to 25 shown in Table 3 were measured under the same conditions as in Test 1, and water evaporation rates were determined.
Changes in weight of samples of Examples 1 to 7 and Comparative Examples 1 to 7 having components shown below were measured under the same conditions as in Test 1, and water evaporation rates were determined. In addition, viscosities at 25° C. were measured with a B-type viscometer (Vismetron viscometer: model VS-A1, Rotor No. 1, 12 rotations, 30 sec).

polyoxyethylene(2) behenyl ether [polyoxyethylene behenyl ether]
Amount showing a high water-evaporation inhibiting effect: ≥ 0.2 % by mass | Amount showing a water-evaporation inhibiting effect: ≥ 0.1 % by mass
